Measurements as given in patent publication US7122360B1, “Polypeptides, polynucleotides and uses thereof” (University of Dundee, priority 1998, dated 2006).
Entries after “also recorded” stand apart in the source; their conditions may differ.

Columns and labels:
MAPKAP-K1a/b [1] = assay: Activation of MAPKAP-K1a/b by TNF in HeLa cells; assay type: cell-based; settings: 50 μM PD 98059, 10 μM SB 203580
Source text: (§1) Cell Culture, stimulation and cell lysis.

MAPK = settings: PC12 cells expressing high levels of the NGF receptor (Alessi et al., 1995); cited from earlier work
MSK1 [2] = assay: Activation of transfected Flag-MSK1 in 293 cells; assay type: cell-based, human; settings: for UV-induced activation of transfected MSK1 / activation of transfected MSK1 by TPA: 50 μM PD 98059 or 10 μM SB 203580
Protocol: FIG. 6. Effect of mutation of MSK1 on activation by TPA and UV in 293 cells. 293 cells were transiently transfected with DNA constructs expressing Flag epitope tagged wild type MSK1, N-terminal (NT) “kinase dead” MSK1 and C-terminal (CT) “kinase dead” MSK1. […] The cells were lysed and the MSK1 was immunoprecipitated from the lysates and assayed with Crosstide.
Transfection of MSK1 into 293 cells. 293 cells were cultured on 10 cm diameter dishes and transfected with the pCMV5 vector encoding the Flag epitope tagged MSK1 constructs using a modified calcium phosphate method (Alessi et al., 1996b). 24 h post-transfection, the cells were deprived of serum for 16 h, stimulated with TPA or exposed to UV radiation, the cells were then lysed in 1 ml of ice cold Buffer A, centrifuged at 13,000×g for 5 min, and the Flag tagged MSK1 protein immunoprecipitated from aliquots of lysate (containing 25 μg protein) using 2 μg of FLAG antibody coupled to 5 (1 of Protein G-Sepharose.
Immunoprecipitates were incubated, washed and assayed for MSK1 activity as described above.

MSK1 [3] = assay: NGF-induced activation of MSK1 in PC12 cells; settings: 50 μM PD 98059, 10 μM SB 203580, NGF 30 ng/ml 15 min
MAPKAP-K1 [4] = assay: Activation of MAPKAP-K1 in SK-N-MC cells; assay type: cell-based; settings: 50 μM PD 98059, 10 μM SB 203580
Protocol: (§2) FIG. 14. […] After cell lysis aliquots were assayed for either MSK1 (A), MAPKAP-K1 (B), MAPKAP-K2 (C) after their immunoprecipitation from the lysates or immunoblotted for phosphorylation of CREB and ATF1 (D).
as §1

PKC isoforms = assay: Effect of Ro 318220 on mixed PKC isoforms in vitro; assay type: biochemical; settings: Davis et al., 1989, Alessi 1997, FIG. 9A
Protocol: (§3) FIG. 9. Effect of Ro 318220 on the activity of MSK1. (A) Effect of Ro 318220 on GST-MSK1 (closed circles), mixed PKC isoforms (open circles) GST-MAPKAP-K1b and MAPKAP-K2 (open triangles) in vitro. […] The error for each point is ±10%. […] The cells were lysed MAPKAP-K2 was immunoprecipitated and assayed. […] (C) as above except that 293 cells were incubated for 2 h in 32phosphate (0.1 mCi/ml) before treatment with inhibitors. Cells were then exposed to either UV radiation (200 J/m2) or left untreated (−), incubated for a further 20 min in the continued presence of inhibitors. Following cell lysis, HSP27 was immunoprecipitated from cell extracts (Cuenda et al., 1995) run on a 15% polyacrylamide gel and autoradiographed.

MAPKAP-K2 [5] = assay: Activation of MAPKAP-K2 in SK-N-MC cells; assay type: cell-based; settings: 50 μM PD 98059, 10 μM SB 203580, 5 μM Ro 318220
Protocol: as §2, §1

[6] = target: cyclic AMP dependent protein kinase (Homo sapiens, UniProt P17612); settings: 10 μM Ro 318220 (Davis et al., 1989); cited from earlier work
MSK2 = assay: LPS-induced activation of MSK2 in RAW 264 macrophages; assay type: cell-based, mouse; settings: LPS 100 ng/ml 1 h, 10 μM UO 126, 10 μM SB 203580, 5 TM Ro 318220
MAPKAP-K1a/b [7] = target: T1, MAPKAP-K1a/b (Oryctolagus cuniculus, UniProt A0A5F9C4L9); assay: Effect of Ro 318220 on MAPKAP-K1a/b in vitro; assay type: biochemical; settings: Alessi 1997, FIG. 9A
T1 construct: GST
Protocol: as §3

MAPKAP-K1 [8] = assay: LPS-induced activation of MAPKAP-K1 in RAW 264 macrophages; assay type: cell-based, mouse; settings: LPS 100 ng/ml 1 h, 10 μM UO 126, 5 TM Ro 318220
MSK1 [9] = target: MSK1 (Homo sapiens, UniProt O75582); assay: Effect of Ro 318220 on GST-MSK1 activity in vitro; assay type: biochemical; settings: compared with PKC isoforms and MAPKAP-K1a/b
MAPKAP-K2 [10] = target: T2, MAPKAP-K2 (Homo sapiens, UniProt P49137); assay: Effect of Ro 318220 on MAPKAP-K2 in vitro; assay type: biochemical; settings: even at 10 μM
T2 construct: GST; made in house; host or cells: bacteria
Protocol: as §3

MAPKAP-K2 [11] = assay: Activation of MAPKAP-K2 in 293 cells; assay type: cell-based, human; settings: 50 μM PD 98059 or 10 μM SB 203580
Protocol: as §3, §1

Chain of MSK1 (Homo sapiens, UniProt O75582) (O75582 whole entry, canonical isoform): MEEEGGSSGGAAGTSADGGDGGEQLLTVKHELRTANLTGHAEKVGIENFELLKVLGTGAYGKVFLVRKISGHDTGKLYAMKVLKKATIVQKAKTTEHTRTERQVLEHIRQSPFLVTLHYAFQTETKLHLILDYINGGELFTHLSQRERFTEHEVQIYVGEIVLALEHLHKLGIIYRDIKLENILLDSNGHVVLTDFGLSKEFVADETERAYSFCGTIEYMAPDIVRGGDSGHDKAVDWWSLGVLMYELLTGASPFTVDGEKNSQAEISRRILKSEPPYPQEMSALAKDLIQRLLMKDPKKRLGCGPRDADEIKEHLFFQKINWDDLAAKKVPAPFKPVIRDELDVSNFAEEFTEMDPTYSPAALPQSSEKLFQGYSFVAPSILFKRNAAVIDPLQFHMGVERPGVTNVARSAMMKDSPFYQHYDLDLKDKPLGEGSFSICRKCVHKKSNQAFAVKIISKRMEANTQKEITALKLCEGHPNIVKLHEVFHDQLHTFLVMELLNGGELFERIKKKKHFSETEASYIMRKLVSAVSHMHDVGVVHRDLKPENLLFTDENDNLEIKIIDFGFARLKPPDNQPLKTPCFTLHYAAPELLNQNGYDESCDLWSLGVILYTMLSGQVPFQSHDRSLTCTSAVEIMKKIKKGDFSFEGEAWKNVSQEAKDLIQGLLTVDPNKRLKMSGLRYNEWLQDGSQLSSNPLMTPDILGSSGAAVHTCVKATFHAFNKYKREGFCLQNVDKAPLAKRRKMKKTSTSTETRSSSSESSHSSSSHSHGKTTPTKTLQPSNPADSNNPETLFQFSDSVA
T1 sequence (A0A5F9C4L9 1-740): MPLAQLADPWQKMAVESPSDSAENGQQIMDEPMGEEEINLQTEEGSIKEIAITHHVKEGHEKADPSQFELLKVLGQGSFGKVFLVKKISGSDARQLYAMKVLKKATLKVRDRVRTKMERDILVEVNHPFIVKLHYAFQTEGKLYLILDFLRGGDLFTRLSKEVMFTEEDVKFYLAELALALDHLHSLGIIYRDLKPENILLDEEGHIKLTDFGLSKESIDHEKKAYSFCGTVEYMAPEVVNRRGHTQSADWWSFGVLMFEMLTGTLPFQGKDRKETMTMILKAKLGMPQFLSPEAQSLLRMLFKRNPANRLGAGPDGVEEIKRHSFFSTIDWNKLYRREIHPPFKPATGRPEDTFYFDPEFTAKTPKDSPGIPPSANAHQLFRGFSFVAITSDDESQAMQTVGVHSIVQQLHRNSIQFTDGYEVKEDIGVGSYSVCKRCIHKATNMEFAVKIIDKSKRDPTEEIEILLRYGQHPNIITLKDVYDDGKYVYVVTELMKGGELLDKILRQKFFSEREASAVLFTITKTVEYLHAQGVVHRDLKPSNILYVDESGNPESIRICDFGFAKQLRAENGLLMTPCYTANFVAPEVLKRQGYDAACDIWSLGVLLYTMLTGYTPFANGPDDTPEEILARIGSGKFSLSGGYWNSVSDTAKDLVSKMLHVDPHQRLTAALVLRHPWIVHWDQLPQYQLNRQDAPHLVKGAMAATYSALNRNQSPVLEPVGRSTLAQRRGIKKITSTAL
T2 sequence (P49137 46-400 limits assumed): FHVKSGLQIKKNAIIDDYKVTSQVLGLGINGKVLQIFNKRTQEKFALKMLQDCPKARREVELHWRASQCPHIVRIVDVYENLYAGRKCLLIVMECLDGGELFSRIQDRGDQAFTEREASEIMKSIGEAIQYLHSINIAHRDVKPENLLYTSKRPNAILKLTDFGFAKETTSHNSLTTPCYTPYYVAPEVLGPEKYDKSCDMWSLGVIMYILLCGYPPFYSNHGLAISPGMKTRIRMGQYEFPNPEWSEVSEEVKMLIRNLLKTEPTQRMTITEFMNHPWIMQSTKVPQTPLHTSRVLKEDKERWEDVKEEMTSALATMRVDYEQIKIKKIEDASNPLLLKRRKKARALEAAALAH

Structure (SMILES)	activation of MAPKAP-K1a/b after 15 min of TNF stimulation (MAPKAP-K1a/b [1])	NGF-induced activation of MAPK (MAPK)	UV-induced activation of transfected MSK1 (MSK1 [2])	activation of transfected MSK1 by TPA (MSK1 [2])	activation of transfected wild type MSK1 by EGF, basic FGF and serum (MSK1 [2]; data not shown)	NGF-induced activation of MSK1 (MSK1 [3])	activation of MAPKAP-K1 by FGF (MAPKAP-K1 [4])	IC50 (PKC isoforms) [nM]	activation of MAPKAP-K2 by sodium arsenite and FGF (MAPKAP-K2 [5])	inhibition of cyclic AMP dependent protein kinase [6]	LPS-induced activation of MSK2 (MSK2)	IC50 (MAPKAP-K1a/b [7]) [nM]	LPS-induced activation of MAPKAP-K1 (MAPKAP-K1 [8])	inhibition of MSK1 activity in vitro (MSK1 [9])	inhibition of MAPKAP-K2 in vitro (MAPKAP-K2 [10])	activation of MAPKAP-K2 by stressful stimuli (MAPKAP-K2 [11])
COc1cccc(-c2cc(=O)c3ccccc3o2)c1N [PD 98059]	suppressed	only partially suppresses	unaffected	prevented	prevented	not significantly affected	abolished	–	–	–	–	–	–	–	–	–
Cn1cc(C2=C(c3cn(CCCSC(=N)N)c4ccccc34)C(=O)NC2=O)c2ccccc21 [Ro 318220]	–	–	–	–	–	–	–	10 to 30	does not affect	not significantly inhibited	does not affect	10 to 30	does not affect	equally potent inhibitor; also recorded: reversible inhibitor	does not significantly inhibit	–
C[S+]([O-])c1ccc(-c2nc(-c3ccncc3)c(-c3ccc(F)cc3)[nH]2)cc1 (stereo not drawn) [SB 203580]	–	–	prevented	but not by SB 203580	–	not significantly affected	–	–	completely prevented	–	only inhibited partially	–	–	–	–	prevented
